Source: patent US20100022600A1, “METHODS AND COMPOSITIONS FOR TREATING CENTRAL NERVOUS SYSTEM TUMORS” (priority 2006, published 2010)

Key:
CS-56 = CS-56 expression in tumor cells in vitro; assay type: cell-based; details: data not shown
Ki-67 = Ki-67 immunoreactivity and proliferation-index in vivo; parameters: species or system rat; details: 9, 14 and 21 days of pio treatment
Experimental: Frozen brain sections were first blocked with 5% normal goat serum or normal horse serum in PBS and subsequently incubated with rabbit anti-Ki-67 antibody (1:200 dilution), mouse anti-CS-56 (1:100 dilution), goat anti-MMP-9 (1:100 dilution) or rabbit anti-cleaved caspase-3 antibody (1:200 dilution) at 4° C. overnight. Sections were washed extensively with PBS before incubation with secondary antibodies. Incubation was carried at room temperature for 1 h. After washing with PBS three times, stained slides were mounted with PBS/glycerol (1:1) and viewed under a fluorescent microscope (Leica, Germany). For determination of the proliferation-index, Ki-67 positive cells in pio and vehicle treated cells and animals were counted, the percentage of Ki-67 positive cells in 1×10^3 tumor cells (P1 staining used in the in vitro experiments—not shown; DAPI stain used in the in vivo experiments) calculated and statistically compared. The percentage of cleaved caspase-3 positive cells was assessed by counting the immunopositive cells in 1×10^3 tumor (DAPI stain) cells and statistically compared.

primary astrocytes = assay: MTT viability assay, primary astrocytes; assay type: cell-based; details: 1, 10, 30 μM; 1, 3, 5, 7 d
Experimental: (§1) Rat C6 glioma cells were grown in DMEM and human glioma cells (U87, A172) in RPMI, supplemented with 10% (v/v) fetal calf serum, 100 U/mL penicillin and 100 U/mL streptomycin in a 5% CO2 atmosphere. Primary astrocyte cultures were prepared as described previously (J Neurosci 1998; 18: 4451-60) and grown in DMEM, supplemented with 2.5% (v/v) fetal calf serum, 100 U/mL penicillin and 100 U/mL streptomycin in a 5% CO2 atmosphere. […] Experiments were performed in triplicate.

cleaved caspase-3 [1] = assay: Western blot of cleaved caspase-3 in whole-hemisphere lysates, C6 rat glioma model; assay type: in vivo; details: 6 d of pio treatment
Experimental: For western-blot analysis, tumor-containing hemispheres were homogenized in Tris-HCl [50 mM Tris-HCl pH8, 120 mM NaCl, 5 mM EDTA, 0.5% (v/v) NP-40, […] phenylmethylsulfonyl fluoride (PMSF)] and sonicated. Homogenates were collected by centrifugation (15 min 11000 g. 4° C.) and protein concentration in the supernatant was determined using the Bio-Rad Protein Assay (Biorad, Munich, Germany). Lysates (20-40 μg) were separated on a 7% (w/v) sodium dodecyl sulfate (SDS)-polyacrylamide gel under reducing conditions and transferred to a PVDF membrane (Millipore, Bedford, Mass., USA). Non-specific binding was blocked by incubation with 5% (w/v) skimmed milk in TBS for 2 h. Following incubation with the primary antibody overnight at 4° C. [rabbit anti-BAX 1:1000, rabbit anti-cleaved caspase-3 1:1000, mouse […] 1:1000, goat anti-MMP-9 1:1000 in TBS containing 0.1% (v/v) Tween 20] membranes were washed three times in TBS/Tween for 5 min and subsequently incubated for 120 min in TBS/Tween containing secondary peroxidase-conjugated antibody at room temperature (anti-rabbit 1:1000, anti-mouse 1:1000; anti-goat 1:1000 respectively). Signals were visualized by chemoluminescence (Pierce, Rockford, Ill., USA) and band intensities were quantified with NIH Image 1.62 software (Bethesda, Md., USA).

C6 glioma tumor cells = assay: TUNEL assay for apoptosis in tumors, C6 rat glioma model; assay type: in vivo; details: 9 days of pio treatment
Experimental: Frozen brain tissue sections were examined for apoptosis using the terminal deoxynucleotidyl transferase-mediated dUTP transferase nick-end labeling (TUNEL assay). Apoptosis was evaluated using the Promega DeadEnd Fluorometric Tunel System (Promega, Madison, Wis., USA) according to the manufacturer's instructions. The percentage of TUNEL positive cells was assessed by counting the immunopositve cells in 1×10^3 tumor (DAPI stain) cells and statistically compared.

human glioma cells U87 = assay: MTT viability assay, human U87 glioma cells; assay type: cell-based; details: 30 μM pio; 3, 5 and 7 d
Experimental: as §1

[2] = Daily body weight in C6 rat glioma model; assay type: in vivo; details: daily weighing; vehicle group lost weight significantly at 17 d
Experimental: Before implantation, 85-90% confluent C6 cells were trypsinized, rinsed with DMEM+10% fetal calf serum, and centrifuged at 1000 rpm for 4 min. The cell pellet was resuspended in DMEM and placed on ice. Concentration of viable cells was adjusted to 1×10^5 cells/1 μl of DMEM. Each rat was anesthetized and placed in a stereotactic frame (David Kopf Instruments, Tujunga, Calif., USA), a hole was drilled at AP 0.0, R -3.0 relative to bregma according to the stereotaxic atlas of […], 1963). Tumor cells were injected at a rate of 0.5 μl/s, using a 2 μl Hamilton (#2701) syringe (Reno, Nev., USA) with a 26 s-gauge needle mounted on a stereotactic holder at a depth of 5 mm. […] For intracerebral administration of pio/vehicle (DMSO), the tip of an Alzet-brain-infusion-kit (Cupertino, Calif., USA) was placed in a depth of 5 mm, connected to a 2ML4 Alzet osmotic pump (Cupertino, Calif., USA). Drug administration began 4 h after surgery. […] The pumps were filled with 20 μM pio solved in PBS or vehicle (DMSO, 0.1% final concentration) solved in PBS. Animals were randomly distributed in two groups, treated with pio filled pumps (n=26) or vehicle filled pumps (n=26). Thereafter skull was cleaned and the incision sutured. […] Control animals received Purina chow without additions. Rats were allowed free access to the chow. Tumors were allowed to grow and animals were weighed daily. […]

Rat C6 glioma cells = assay: MTT viability assay, rat C6 glioma cells; assay type: cell-based; details: 10 and 30 μM; concentration- and time-dependent; significant at 5 d and 7 d (30 μM) and at 7 d (10 μM)
Experimental: as §1

[3] = Clinical assessment of neurological deficits in C6 rat glioma model; assay type: in vivo; details: intracerebral treatment, 21 d
Experimental: After striatal injection of C6 cells and intracerebral treatment with pio or vehicle for 21 d, the animals were examined for neurological deficits. Neurological function was quantified by evaluation of hemiparesis, cycling and immobility (J Neurosurg 1986; 65: 222-9, Stroke 1999; 30: 427-31; discussion 431-2). Hemiparesis was assessed by forelimb flexion and immobility by the loss of ability to walk a distance greater than 15 cm. One point was given for each negative finding and total score then computed. The scores of the treated and untreated group were averaged. A blinded observer performed neurological examinations.

cleaved caspase-3 [4] = assay: Immunohistochemistry of cleaved caspase-3 in tumors, C6 rat glioma model; assay type: in vivo; details: 6 to 14 days of pio treatment, significant maximum at 9 d
Experimental: Frozen brain sections were first blocked with 5% normal goat serum or normal horse serum in PBS and subsequently incubated with rabbit anti-Ki-67 antibody (1:200 dilution), mouse anti-CS-56 (1:100 dilution), goat anti-MMP-9 (1:100 dilution) or rabbit anti-cleaved caspase-3 antibody (1:200 dilution) at 4° C. overnight. Sections were washed extensively with PBS before incubation with secondary antibodies. Incubation was carried at room temperature for 1 h. After washing with PBS three times, stained slides were mounted with PBS/glycerol (1:1) and viewed under a fluorescent microscope (Leica, Germany). […] The percentage of cleaved caspase-3 positive cells was assessed by counting the immunopositive cells in 1×10^3 tumor (DAPI stain) cells and statistically compared.

SMILES: CCc1ccc(CCOc2ccc(CC3SC(=O)NC3=O)cc2)nc1 (stereo not shown) [pioglitazone, 5-[4-[2-(5-ethylpyridin-2-yl)ethoxyl]benzyl]thiazolidine-2,4-dione]
- CS-56 expression in vitro (CS-56): highly upregulated
- Ki-67 expression in vivo (Ki-67): significant reduction of Ki-67 expression
- viability of primary astrocytes (primary astrocytes): not affected
- induction of cleaved caspase-3 (densitometry) (cleaved caspase-3 [1]): 2.88 fold
- TUNEL staining (C6 glioma tumor cells): Increased TUNEL staining
- cellular viability, effect in words (human glioma cells U87): significantly reduced cellular viability
- weight loss [2]: did not show any weight loss
- cellular viability, effect in words (Rat C6 glioma cells): significantly reduced the cellular viability
- clinical outcome overall [3]: significant better clinical outcome
- cycling ([3]; versus vehicle): no cycling
- hemiparesis ([3]; versus vehicle): less hemiparesis
- immobility ([3]; versus vehicle): less immobility
- cleaved caspase-3 expression (immunohistochemistry) (cleaved caspase-3 [4]): elevated cleaved caspase-3 expression
